# How the values were obtained:
# [1] = system: Ang II-mediated hypertensive mice, pdMCAO; experiment: Neurological function tests in HTN mice after pdMCAO; assay type: in vivo, mouse; conditions: male HTN mice; 1-14 days post-pdMCAO
# Description: Foot fault, cylinder test, and adhesive tape removal tests were used to assess pdMCAO-induced somatosensory and motor deficits in HTN mice in a blinded manner as described previously (Bhuiyan et al. (2017)J Cereb Blood Flow Metab. 37:2780-2794; Begum et al. (2018) Glia. 66).
# Cylinder test: Mice are placed in a transparent cylinder (9 cm in diameter and 15 cm in height) for 10 min and all the forelimb movements of the mice will be recorded. Forepaw (left/right/both) usage on initial contact against the cylinder wall after rearing and during lateral exploration will be recorded. Prior to ischemic stroke, animals were placed in the cylinder for 5 min to establish a baseline symmetry profile.
# Foot fault test: Each mouse will be placed on a stainless-steel grid floor (20 cm×40 cm with a mesh size of 4 cm^2) elevated 1 m above the floor. […] Data will be expressed as the number of foot fault errors made by the forelimbs contralateral to the injury hemisphere as a percentage of total steps.
# Adhesive contact and removal tests: A piece of adhesive tape (4 mm×3 mm) will be attached to the contralateral forepaw with equal pressure by the experimenter in each trial. The time to make first contact with the tape and the time to remove the tape will be recorded as the contact time and the removal time, respectively. […]
# BRK = BRK (Homo sapiens, UniProt Q13882); experiment: Kinase panel (Dundee profiling); assay type: biochemical; conditions: read-out: % residual kinase activity
# Sequence of BRK (Q13882 whole entry, species assumed): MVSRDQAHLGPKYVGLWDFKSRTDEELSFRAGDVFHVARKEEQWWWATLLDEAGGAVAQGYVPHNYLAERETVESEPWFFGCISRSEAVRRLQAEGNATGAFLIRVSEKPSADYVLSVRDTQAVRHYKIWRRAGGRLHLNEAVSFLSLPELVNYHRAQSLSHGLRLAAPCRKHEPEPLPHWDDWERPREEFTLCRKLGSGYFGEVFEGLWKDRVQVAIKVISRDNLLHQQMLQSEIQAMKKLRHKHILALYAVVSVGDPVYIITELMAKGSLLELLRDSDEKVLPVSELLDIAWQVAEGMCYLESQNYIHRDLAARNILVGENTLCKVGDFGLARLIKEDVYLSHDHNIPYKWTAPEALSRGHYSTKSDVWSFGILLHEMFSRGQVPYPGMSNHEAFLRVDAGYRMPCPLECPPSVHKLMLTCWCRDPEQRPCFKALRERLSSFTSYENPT
# Description: (§1) The kinase selectivity of ZT-1a was further assessed using standard radioisotopic enzymatic assays against a panel of 140 recombinant kinases (Dundee profiling, Table 2) (Bain et al. (2007) The Biochemical journal 408, 297-315). ZT-1a at a concentration of 10 μM inhibited only MAPKAP-K2 activity 85±7% compared to DMSO control, representing high kinase selectivity.
# (§2) Referring to Table 2, ZT-1a was tested at 10 and 1 μM against a panel of 140 recombinant kinases in an enzymatic activity-based assay performed by the International Centre for Kinase Profiling in the MRC Protein Phosphorylation and Ubiquitylation Unit. Values represent % residual kinase activity (mean+/−SEM, n=3). Kinases labelled with an asterick* are inhibited ≥50% by ZT-1a.
# S6K1 = S6K1 (Homo sapiens, UniProt P23443); experiment: Kinase panel (Dundee profiling); assay type: biochemical; conditions: read-out: % residual kinase activity
# Description: as §1, §2
# MNK2 = MNK2 (Homo sapiens, UniProt Q9HBH9); experiment: Kinase panel (Dundee profiling); assay type: biochemical; conditions: read-out: % residual kinase activity
# Sequence of MNK2 (Q9HBH9 whole entry, species assumed): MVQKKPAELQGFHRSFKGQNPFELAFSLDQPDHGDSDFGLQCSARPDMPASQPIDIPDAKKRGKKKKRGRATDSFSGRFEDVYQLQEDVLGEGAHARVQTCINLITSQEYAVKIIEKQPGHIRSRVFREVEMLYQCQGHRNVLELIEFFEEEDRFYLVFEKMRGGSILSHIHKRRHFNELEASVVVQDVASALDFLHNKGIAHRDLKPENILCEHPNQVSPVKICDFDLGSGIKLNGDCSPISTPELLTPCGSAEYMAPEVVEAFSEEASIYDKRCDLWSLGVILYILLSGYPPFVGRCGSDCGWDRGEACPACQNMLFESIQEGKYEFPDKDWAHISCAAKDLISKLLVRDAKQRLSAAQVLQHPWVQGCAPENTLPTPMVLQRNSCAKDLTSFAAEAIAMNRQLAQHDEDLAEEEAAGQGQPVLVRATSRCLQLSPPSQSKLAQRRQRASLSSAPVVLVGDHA
# Description: as §1, §2
# TTK = TTK (Homo sapiens, UniProt P33981); experiment: Kinase panel (Dundee profiling); assay type: biochemical; conditions: read-out: % residual kinase activity
# Sequence of TTK (P33981 whole entry, species assumed): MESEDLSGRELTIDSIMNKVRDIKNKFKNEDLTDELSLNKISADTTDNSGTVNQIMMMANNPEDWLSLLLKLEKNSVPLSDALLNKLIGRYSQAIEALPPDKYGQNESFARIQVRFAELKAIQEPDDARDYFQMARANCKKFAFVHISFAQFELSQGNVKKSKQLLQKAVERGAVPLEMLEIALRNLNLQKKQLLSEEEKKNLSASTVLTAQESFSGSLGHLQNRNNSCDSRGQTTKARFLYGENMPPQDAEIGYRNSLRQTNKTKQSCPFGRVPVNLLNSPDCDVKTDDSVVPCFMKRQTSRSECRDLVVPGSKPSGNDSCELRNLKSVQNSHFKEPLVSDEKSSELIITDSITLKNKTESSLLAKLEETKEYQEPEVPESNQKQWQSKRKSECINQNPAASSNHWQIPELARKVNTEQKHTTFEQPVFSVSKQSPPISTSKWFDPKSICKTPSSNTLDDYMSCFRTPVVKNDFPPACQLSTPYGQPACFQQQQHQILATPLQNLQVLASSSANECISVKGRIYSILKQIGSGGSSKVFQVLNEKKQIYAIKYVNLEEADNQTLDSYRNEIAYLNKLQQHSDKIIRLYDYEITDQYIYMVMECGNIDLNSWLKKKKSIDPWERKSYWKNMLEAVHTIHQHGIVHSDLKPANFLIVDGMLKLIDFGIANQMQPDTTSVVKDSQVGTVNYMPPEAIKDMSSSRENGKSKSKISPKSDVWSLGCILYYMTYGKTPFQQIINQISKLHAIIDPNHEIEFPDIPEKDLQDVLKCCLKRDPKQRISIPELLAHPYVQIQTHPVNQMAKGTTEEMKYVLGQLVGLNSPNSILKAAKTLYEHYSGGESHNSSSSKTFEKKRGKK
# Description: as §1, §2
# SIK2 = SIK2 (Homo sapiens, UniProt Q9H0K1); experiment: Kinase panel (Dundee profiling); assay type: biochemical; conditions: read-out: % residual kinase activity
# Description: as §1, §2
# YES1 = YES1 (Homo sapiens, UniProt P07947); experiment: Kinase panel (Dundee profiling); assay type: biochemical; conditions: read-out: % residual kinase activity
# Description: as §1, §2
# EIF2AK3 = EIF2AK3 (Homo sapiens, UniProt Q9NZJ5); experiment: Kinase panel (Dundee profiling); assay type: biochemical; conditions: read-out: % residual kinase activity
# Description: as §1, §2
# RIPK2 = RIPK2 (Homo sapiens, UniProt O43353); experiment: Kinase panel (Dundee profiling); assay type: biochemical; conditions: read-out: % residual kinase activity
# Description: as §1, §2
# ZAP70 = ZAP70 (Homo sapiens, UniProt P43403); experiment: Kinase panel (Dundee profiling); assay type: biochemical; conditions: read-out: % residual kinase activity
# Description: as §1, §2
# TTBK1 = TTBK1 (Homo sapiens, UniProt Q5TCY1); experiment: Kinase panel (Dundee profiling); assay type: biochemical; conditions: read-out: % residual kinase activity
# Description: as §1, §2
# TIE2 = TIE2 (Homo sapiens, UniProt Q02763); experiment: Kinase panel (Dundee profiling); assay type: biochemical; conditions: read-out: % residual kinase activity
# Description: as §1, §2
# SIK3 = SIK3 (Homo sapiens, UniProt Q9Y2K2); experiment: Kinase panel (Dundee profiling); assay type: biochemical; conditions: read-out: % residual kinase activity
# Description: as §1, §2
# PAK6 = PAK6 (Homo sapiens, UniProt Q9NQU5); experiment: Kinase panel (Dundee profiling); assay type: biochemical; conditions: read-out: % residual kinase activity
# Sequence of PAK6 (Q9NQU5 whole entry, species assumed): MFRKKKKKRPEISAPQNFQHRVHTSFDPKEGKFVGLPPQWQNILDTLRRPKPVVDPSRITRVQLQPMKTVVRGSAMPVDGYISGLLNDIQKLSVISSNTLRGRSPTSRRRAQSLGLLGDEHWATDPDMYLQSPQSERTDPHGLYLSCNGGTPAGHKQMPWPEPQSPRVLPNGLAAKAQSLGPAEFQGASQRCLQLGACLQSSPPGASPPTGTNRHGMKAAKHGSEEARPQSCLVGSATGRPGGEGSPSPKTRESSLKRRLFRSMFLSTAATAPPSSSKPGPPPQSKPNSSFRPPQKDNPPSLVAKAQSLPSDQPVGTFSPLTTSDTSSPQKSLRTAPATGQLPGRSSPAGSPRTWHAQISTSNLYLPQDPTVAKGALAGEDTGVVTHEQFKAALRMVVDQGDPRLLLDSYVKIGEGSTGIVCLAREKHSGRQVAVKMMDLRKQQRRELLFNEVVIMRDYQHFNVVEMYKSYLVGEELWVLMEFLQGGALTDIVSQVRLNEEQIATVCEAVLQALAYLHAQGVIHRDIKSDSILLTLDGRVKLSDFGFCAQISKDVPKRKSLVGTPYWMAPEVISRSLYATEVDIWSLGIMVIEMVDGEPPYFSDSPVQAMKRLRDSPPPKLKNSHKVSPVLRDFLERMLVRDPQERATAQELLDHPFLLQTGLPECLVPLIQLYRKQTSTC
# Description: as §1, §2
# MKK2 = MKK2 (Homo sapiens, UniProt P36507); experiment: Kinase panel (Dundee profiling); assay type: biochemical; conditions: read-out: % residual kinase activity
# Sequence of MKK2 (P36507 whole entry, species assumed): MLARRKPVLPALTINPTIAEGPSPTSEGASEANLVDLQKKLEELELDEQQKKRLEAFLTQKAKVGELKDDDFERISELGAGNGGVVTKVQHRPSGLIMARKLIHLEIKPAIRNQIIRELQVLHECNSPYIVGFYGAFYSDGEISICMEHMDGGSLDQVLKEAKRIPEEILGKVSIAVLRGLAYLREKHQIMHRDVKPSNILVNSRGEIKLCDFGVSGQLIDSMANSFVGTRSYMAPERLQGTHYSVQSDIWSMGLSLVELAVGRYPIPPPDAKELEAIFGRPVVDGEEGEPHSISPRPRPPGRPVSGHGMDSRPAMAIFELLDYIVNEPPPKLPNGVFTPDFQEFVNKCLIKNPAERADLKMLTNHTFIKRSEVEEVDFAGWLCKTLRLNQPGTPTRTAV
# Description: as §1, §2
# PKCa = PKCa (Homo sapiens, UniProt P17252); experiment: Kinase panel (Dundee profiling); assay type: biochemical; conditions: read-out: % residual kinase activity
# Description: as §1, §2
# NEK2a = NEK2a (Homo sapiens, UniProt P51955); experiment: Kinase panel (Dundee profiling); assay type: biochemical; conditions: read-out: % residual kinase activity
# Description: as §1, §2
# PKBa = PKBa (Homo sapiens, UniProt P31749, S473D); experiment: Kinase panel (Dundee profiling); assay type: biochemical; conditions: read-out: % residual kinase activity
# Description: as §1, §2
# CHK1 = CHK1 (Homo sapiens, UniProt O14757); experiment: Kinase panel (Dundee profiling); assay type: biochemical; conditions: read-out: % residual kinase activity
# Sequence of CHK1 (O14757 whole entry, species assumed): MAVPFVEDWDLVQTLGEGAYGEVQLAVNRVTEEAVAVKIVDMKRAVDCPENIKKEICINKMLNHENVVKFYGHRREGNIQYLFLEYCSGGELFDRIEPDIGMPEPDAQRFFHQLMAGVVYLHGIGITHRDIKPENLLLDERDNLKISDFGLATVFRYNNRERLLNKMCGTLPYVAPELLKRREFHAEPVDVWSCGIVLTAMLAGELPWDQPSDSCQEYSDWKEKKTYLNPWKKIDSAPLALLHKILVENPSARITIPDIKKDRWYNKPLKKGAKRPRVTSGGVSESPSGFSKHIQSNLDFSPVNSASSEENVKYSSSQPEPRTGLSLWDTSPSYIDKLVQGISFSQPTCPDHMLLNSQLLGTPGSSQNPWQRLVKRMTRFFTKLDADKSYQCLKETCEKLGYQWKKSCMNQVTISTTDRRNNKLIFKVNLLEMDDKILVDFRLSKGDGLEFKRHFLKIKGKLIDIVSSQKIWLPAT
# Description: as §1, §2
# PKCz = PKCz (Homo sapiens, UniProt Q05513); experiment: Kinase panel (Dundee profiling); assay type: biochemical; conditions: read-out: % residual kinase activity
# Sequence of PKCz (Q05513 whole entry): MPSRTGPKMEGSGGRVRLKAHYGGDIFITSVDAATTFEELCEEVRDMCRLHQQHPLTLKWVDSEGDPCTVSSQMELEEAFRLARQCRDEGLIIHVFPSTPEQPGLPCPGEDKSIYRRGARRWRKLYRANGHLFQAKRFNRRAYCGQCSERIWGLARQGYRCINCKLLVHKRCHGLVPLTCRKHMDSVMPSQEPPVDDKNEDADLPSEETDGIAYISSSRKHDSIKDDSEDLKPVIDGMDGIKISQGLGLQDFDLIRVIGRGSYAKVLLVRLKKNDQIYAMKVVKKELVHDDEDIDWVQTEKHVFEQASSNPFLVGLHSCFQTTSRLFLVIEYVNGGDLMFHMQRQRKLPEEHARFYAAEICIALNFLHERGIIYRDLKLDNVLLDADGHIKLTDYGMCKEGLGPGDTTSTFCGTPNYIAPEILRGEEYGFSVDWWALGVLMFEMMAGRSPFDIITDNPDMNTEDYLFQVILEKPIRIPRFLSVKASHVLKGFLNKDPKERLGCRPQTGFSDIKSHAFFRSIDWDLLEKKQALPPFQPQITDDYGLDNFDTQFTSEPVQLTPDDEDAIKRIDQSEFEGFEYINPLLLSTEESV
# Description: as §1, §2
# TSSK1 = TSSK1 (Homo sapiens, UniProt Q9BXA7); experiment: Kinase panel (Dundee profiling); assay type: biochemical; conditions: read-out: % residual kinase activity
# Sequence of TSSK1 (Q9BXA7 whole entry, species assumed): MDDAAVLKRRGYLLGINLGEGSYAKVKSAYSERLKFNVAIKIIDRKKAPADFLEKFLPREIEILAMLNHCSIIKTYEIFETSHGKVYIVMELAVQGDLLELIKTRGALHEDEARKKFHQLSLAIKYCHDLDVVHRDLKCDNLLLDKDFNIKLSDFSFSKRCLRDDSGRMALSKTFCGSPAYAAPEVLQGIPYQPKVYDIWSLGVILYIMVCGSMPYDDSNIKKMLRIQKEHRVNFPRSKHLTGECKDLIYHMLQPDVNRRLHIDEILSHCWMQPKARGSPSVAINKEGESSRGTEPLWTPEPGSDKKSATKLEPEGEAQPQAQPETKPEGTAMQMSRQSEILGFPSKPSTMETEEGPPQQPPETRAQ
# Description: as §1, §2
# MELK = MELK (Homo sapiens, UniProt Q14680); experiment: Kinase panel (Dundee profiling); assay type: biochemical; conditions: read-out: % residual kinase activity
# Description: as §1, §2
# CSK = CSK (Homo sapiens, UniProt P41240); experiment: Kinase panel (Dundee profiling); assay type: biochemical; conditions: read-out: % residual kinase activity
# Description: as §1, §2
# MST4 = MST4 (Homo sapiens, UniProt Q9P289); experiment: Kinase panel (Dundee profiling); assay type: biochemical; conditions: read-out: % residual kinase activity
# Description: as §1, §2
# IKKb = IKKb (Homo sapiens, UniProt O14920); experiment: Kinase panel (Dundee profiling); assay type: biochemical; conditions: read-out: % residual kinase activity
# Description: as §1, §2
compound,measurement,setting,value
"Cc1cc(C(C#N)c2ccc(Cl)cc2)c(Cl)cc1NC(=O)c1cc(Cl)ccc1O (stereo not shown) [ZT-1a, 5-chloro-N-(5-chloro-4-((4-chlorophenyl)(cyano)methyl)-2-methylphenyl)-2-hydroxy-benzamide]","foot fault, cylinder and adhesive tape removal tests",[1],"less foot faults, less unilateral turns and better performance in adhesive tape removal"
same,remaining activity at 1 µM,BRK; 1 μM,116 ± 12%
same,remaining activity at 10 µM,BRK; 10 μM,103 ± 2%
same,remaining activity at 1 µM,S6K1; 1 μM,119 ± 10%
same,remaining activity at 10 µM,S6K1; 10 μM,81 ± 2%
same,remaining activity at 1 µM,MNK2; 1 μM,100 ± 7%
same,remaining activity at 10 µM,MNK2; 10 μM,105 ± 3%
same,remaining activity at 1 µM,TTK; 1 μM,104 ± 2%
same,remaining activity at 10 µM,TTK; 10 μM,91 ± 5%
same,remaining activity at 1 µM,SIK2; 1 μM,105 ± 16%
same,remaining activity at 10 µM,SIK2; 10 μM,76 ± 8%
same,remaining activity at 1 µM,YES1; 1 μM,109 ± 3%
same,remaining activity at 10 µM,YES1; 10 μM,98 ± 7%
same,remaining activity at 1 µM,EIF2AK3; 1 μM,114 ± 2%
same,remaining activity at 10 µM,EIF2AK3; 10 μM,100 ± 3%
same,remaining activity at 1 µM,RIPK2; 1 μM,128 ± 5%
same,remaining activity at 10 µM,RIPK2; 10 μM,120 ± 3%
same,remaining activity at 1 µM,ZAP70; 1 μM,120 ± 1%
same,remaining activity at 10 µM,ZAP70; 10 μM,97 ± 9%
same,remaining activity at 1 µM,TTBK1; 1 μM,119 ± 5%
same,remaining activity at 10 µM,TTBK1; 10 μM,102 ± 2%
same,remaining activity at 1 µM,TIE2; 1 μM,139 ± 74%
same,remaining activity at 10 µM,TIE2; 10 μM,73 ± 11%
same,remaining activity at 1 µM,SIK3; 1 μM,104 ± 9%
same,remaining activity at 10 µM,SIK3; 10 μM,88%
same,remaining activity at 1 µM,PAK6; 1 μM,69 ± 2%
same,remaining activity at 10 µM,PAK6; 10 μM,75 ± 4%
same,remaining activity at 1 µM,MKK2; 1 μM,126 ± 2%
same,remaining activity at 10 µM,MKK2; 10 μM,81 ± 27%
same,remaining activity at 1 µM,PKCa; 1 μM,97 ± 4%
same,remaining activity at 10 µM,PKCa; 10 μM,83 ± 2%
same,remaining activity at 1 µM,NEK2a; 1 μM,85 ± 12%
same,remaining activity at 10 µM,NEK2a; 10 μM,91 ± 6%
same,remaining activity at 1 µM,PKBa; 1 μM,104 ± 1%
same,remaining activity at 10 µM,PKBa; 10 μM,91 ± 4%
same,remaining activity at 1 µM,CHK1; 1 μM,111 ± 11%
same,remaining activity at 10 µM,CHK1; 10 μM,109 ± 8%
same,remaining activity at 1 µM,PKCz; 1 μM,80 ± 11%
same,remaining activity at 10 µM,PKCz; 10 μM,122 ± 28%
same,remaining activity at 1 µM,TSSK1; 1 μM,99 ± 2%
same,remaining activity at 10 µM,TSSK1; 10 μM,74 ± 6%
same,remaining activity at 1 µM,MELK; 1 μM,130 ± 34%
same,remaining activity at 10 µM,MELK; 10 μM,63 ± 3%
same,remaining activity at 1 µM,CSK; 1 μM,96 ± 8%
same,remaining activity at 10 µM,CSK; 10 μM,106 ± 29%
same,remaining activity at 1 µM,MST4; 1 μM,63 ± 10%
same,remaining activity at 10 µM,MST4; 10 μM,63%
same,remaining activity at 1 µM,IKKb; 1 μM,101%
same,remaining activity at 10 µM,IKKb; 10 μM,78 ± 3%
